# From article PMC10518255, “A first-in-class pan-lysyl oxidase inhibitor impairs stromal remodeling and enhances gemcitabine response and survival in pancreatic cancer” (Nature Cancer, 2023)
# Values joined by “and” are separate entries in the source; they are usually repeats but may differ in a detail not shown here. Equal values may be shown once.
# Assays:
# KPC PDAC tumors = experiment: Bulk modulus (stiffness) by unconfined compression testing of end-point KPC tumors; type: in vivo, mouse; design: key to Bulk modulus (stiffness) by unconfined compression testing: bulk elastic modulus in kPa; conditions: for tumor bulk modulus (stiffness): end-point KPC tumors; for Bulk modulus (stiffness) by unconfined compression testing: endpoint PDAC tumours, individual tumours
# Method: Fig. 4 PXS-5505 administered in a KPC in vivo survival study. a, Schematic of the KPC in vivo survival study. Presence of a primary tumor in KPC mice was confirmed by two independent researchers (positive diagnosis) before commencement of daily treatment (Tx) on one of four treatment arms as follows: vehicle, 0.9% saline; Gem, twice-weekly gemcitabine (100 mg kg^−1 i.p.); PXS-5505, daily PXS-5505 at 20 mg kg^−1 i.p.; and PXS-5505 + Gem, daily PXS-5505 at 20 mg kg^−1 i.p. + twice-weekly gemcitabine (100 mg kg^−1 i.p.). b, Table of median survival (since diagnosis/commencement of treatment) across the four treatment groups (n = 30 biologically independent animals (vehicle), n = 31 biologically independent animals (Gem), n = 36 biologically independent animals (PXS-5505), n = 46 biologically independent animals (PXS-5505 + Gem)). c, Kaplan–Meier curves for overall survival across treatment arms (n = 30 biologically independent animals (vehicle), n = 31 biologically independent animals (Gem), n = 36 biologically independent animals (PXS-5505), n = 46 biologically independent animals (PXS-5505 + Gem)). P values determined by log-rank (Mantel–Cox) test. d, Representative maximum intensity projections of SHG multiphoton imaging for tumors from each treatment group (n = 1 FOV taken from one biologically independent animal per group) at end point (scale bars, 100 μm) and quantification of SHG peak signal intensity (n = 5 biologically independent animals per group and five FOV per animal). Data are mean ± s.d. […] Quantification of metastases (n = 18 biologically independent animals (vehicle), n = 18 biologically independent animals (Gem), n = 17 biologically independent animals (PXS-5505), n = 15 biologically independent animals (PXS-5505 + Gem)). Data are mean ± s.d.
# Unconfined compression of in vivo tissue samples was carried out on 2–3-mm cross-sectional slices using a TA Instruments Dynamic Hybrid Rheometer (DHR-3, TA Instruments). Tissue samples were placed between upper and lower parallel plate geometries. A constant linear compressive rate of 5 µm s^−1 was applied to the samples and axial force (N) and gap (mm) were collected every 0.01 s. Data were processed and a stress–strain curve for each replicate was obtained. Bulk elastic modulus (kPa) was obtained as the gradient of the linear region of the stress–strain curve corrected for cross-sectional area of sample. Data points represent individual biological replicates.
# PDGFR-β = experiment: Immunohistochemistry of end-point KPC tumors: panCAF marker; type: in vivo, mouse; conditions: for Percent coverage of PDGFR-ß positive staining: Extended Data 6C, KPC tumours at endpoint, individual FOV
# Method: All tissues or matrices, including patient TMAs, were fixed in 10% buffered formalin and embedded in paraffin. The 4-μm sections of samples were deparaffinized with xylene and rehydrated in graded ethanol washes. For immunohistochemistry, Bond Dewax Solution (AR9222) was used. Antigen retrieval was performed using Bond RX H2(30) protocol: HIER 30 min ER1 (citrate pH 6) OR ER2 (EDTA pH 9) at 100 °C. Slides were quenched in BOND Polymer Refine Detection (Leica Biosystems DS9800). […] Slides were digitized on an Aperio slide scanner and representative areas per tumor acquired and analyzed by researchers blinded to the conditions of the experiment.
# Extended Data Fig. 6 PXS-5505 in combination with gemcitabine in a KPC model. a. Quantification of proliferating cells (Ki67 positive nuclear staining) in KPC tumors at end point, treated as indicated. 5 fields of view (500 μm × 500 μm) per mouse and 10 mice per cohort were scored. […] Quantification of percent coverage of αSMA positive staining in KPC tumors at end point, treated as indicated. 3 fields of view (1000 μm × 1000 μm) per mouse and 10 mice per cohort were scored. […] Quantification of percent coverage of PDGFR-ß positive staining in KPC tumors at end point, treated as indicated. 3 fields of view (1000 μm × 1000 μm) per mouse and 10 mice per cohort were scored. […] Quantification of pMLC2 positive staining in stromal regions of KPC tumors at end point, treated as indicated. 3 fields of view (500 μm × 500 μm) per mouse and 10 mice per cohort were scored. […] Quantification of tumor vasculature (CD31 positive staining) in KPC tumors at end point, treated as indicated. 3 fields of view (1000 μm × 1000 μm) per mouse and 10 mice per cohort were scored. […] Quantification of STAT3 activation (pSTAT3 positive nuclear staining) in KPC tumors at end point, treated as indicated. 3 fields of view (1000 μm × 1000 μm) per mouse and 5 mice per cohort were scored. […] Scale bars = 100 μm. g Quantification of macrophage infiltration (F4/80 positive staining) in KPC tumors at end point, treated as indicated. […]
Structure (SMILES),tumor bulk modulus (stiffness) (KPC PDAC tumors),Bulk modulus (stiffness) by unconfined compression testing (KPC PDAC tumors),Percent coverage of PDGFR-ß positive staining (PDGFR-β),PDGFR-β positivity (PDGFR-β; KPC tumors at end point)
"Nc1ccn([C@@H]2O[C@H](CO)[C@@H](O)C2(F)F)c(=O)n1 [Gem, gemcitabine]",20.0 kPa,26.381 and 11.231 and 14.142 and 18.28 and 20.014,7.4938% and 2.1875% and 12.1122% and 4.282% and 6.095% and 3.1691% and 15.1145% and 8.8619% and 8.0756% and 17.8714% and 24.3073% and 20.1172% and 13.2929% and 10.304% and 12.3137% and 10.967% and 18.634% and 4.9424% and 8.9111% and 7.7908% and 2.017% and 14.5457% and 8.9344% and 10.6658% and 5.631% and 1.6247% and 8.4484% and 0.5673% and 1.2057% and 0.8465%,small decreases in positivity
"Cl.Cl.NC/C=C(\F)CS(=O)(=O)c1cccc2cccnc12.O [PXS-5505, (Z)-3-fluoro-4-(quinolin-8-ylsulfonyl)but-2-en-1-amine dihydrochloride monohydrate]",moderate reduction in stiffness,1.01 and 4.478 and 8.389 and 5.347 and 1.487,6.765% and 8.3993% and 2.8629% and 12.2376% and 9.6982% and 4.3212% and 4.8524% and 9.496% and 7.1445% and 8.9357% and 7.1025% and 17.1234% and 12.5648% and 3.0699% and 20.4926% and 2.5465% and 8.2725% and 3.1151% and 4.1221% and 5.7763% and 4.8975% and 4.1951% and 11.8569% and 14.757% and 1.2435% and 4.7314% and 2.3407% and 3.9912% and 1.8413% and 6.5811%,–
